A value given as a limit tells only on which side of the number the result lay.

Sequence of human FAAH (Fatty Acid Amide Hydrolase) (O00519 whole entry): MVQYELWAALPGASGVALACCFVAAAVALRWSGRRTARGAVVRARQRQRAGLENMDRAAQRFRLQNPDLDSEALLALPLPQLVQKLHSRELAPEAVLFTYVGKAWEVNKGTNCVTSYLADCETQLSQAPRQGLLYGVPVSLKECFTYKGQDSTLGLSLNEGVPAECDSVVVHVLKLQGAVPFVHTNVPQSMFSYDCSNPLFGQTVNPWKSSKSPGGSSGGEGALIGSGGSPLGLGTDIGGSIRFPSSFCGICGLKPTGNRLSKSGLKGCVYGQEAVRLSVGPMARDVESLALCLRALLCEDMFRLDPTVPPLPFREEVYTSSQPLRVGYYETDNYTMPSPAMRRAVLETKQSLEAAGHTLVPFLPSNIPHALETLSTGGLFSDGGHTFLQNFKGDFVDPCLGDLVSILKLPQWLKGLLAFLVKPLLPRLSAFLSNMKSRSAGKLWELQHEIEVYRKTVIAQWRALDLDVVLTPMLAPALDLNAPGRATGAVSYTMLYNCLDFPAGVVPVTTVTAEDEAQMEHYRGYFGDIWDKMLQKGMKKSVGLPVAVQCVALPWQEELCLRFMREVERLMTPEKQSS

The target in the assay is human FAAH (Fatty Acid Amide Hydrolase) (Homo sapiens (Human), UniProt O00519). Nature of the assay: FAAH inhibition, human FAAH CHO whole cell format. Format: cell-based. An excerpt:
To assist in assay development stable cell lines for human, murine and rat full length FAAH were developed. […] The full length FAAH was subcloned into the mammalian expression vector, pcDEF.neo, using XbaI and EcoRI restriction sites and used for stable cell line generation.
The full length murine FAAH was subcloned into the mammalian expression vector, pcDEFneo using either EcoRI (murine) or KpnI and EcoRI (rat) restriction sites. Chinese hamster ovary cells (CHO) were transfected following manufacturers protocol (AMAXA). Forty eight hours post transfection, cells were trypsinized and transferred to 96 well plates in Iscove's DMEM media supplemented with 2 mM Glutamine, 10% fetal calf serum, 1 mg/ml geneticin and HT Supplement (0.1 mM sodium hypoxanthine, 0.016 mM thymidine) in order to isolate single clones. […] Following removal of tissue culture media cells were dislodged following addition of Cellstripper (Mediatech, Inc. Manassas, Va.) and transferred to 96 well black clear bottom assay plate, centrifuged at 1,000 rpm for 3 mins and media removed and replaced with assay buffer (50 mM Tris pH8.0, 1 mM EDTA, 0.1% fatty acid free BSA). The reaction was initiated by addition of fluorescent substrate, AMC Arachidonoyl Amide (Cayman Chemical, Ann Arbor, Mich.) to 1 μM and reaction allowed to proceed for 2 hours at room temperature. Release of fluorescence was monitored in a CytoFluor Multiplate Reader.
Assays are performed on either cell lysate or microsome fractions prepared as described or in whole cell format employing either the fluorescent substrate AAMCA (Cayman chemical, Ann Arbor, Mich.,) or ^3H-anandamide ([ETHANOLAMINE-1-3H] American Radiolabeled Chemicals; 1 mCi/ml). […] AAMCA substrate was used to achieve a final concentration of 1 μM and reaction allowed to proceed at room temperature for 1-3 hours. […] Whole cell assay is conducted with cells harvested after rinsing tissue culture flasks three times with Ca^++Mg^++ free PBS, incubating for 10 min in Enzyme free dissociation media and centrifuging for 5 minutes at 1,000 rpm in table top centrifuge. Cells are resuspended in assay buffer at desired cell number in (4×10^4 cells/assay in 96-well format; 1×10^4 cells/assay in 384-well format) and assayed as described.
The IC50 is the point on the concentration scale where inhibition reaches its midpoint. Lower therefore signals higher potency. For `CC(C)(O)c1ccc(-c2nc(C3CCOCC3)oc2Sc2ccc(Cl)cn2)cn1` [Example A7.1, 2-(5-{5-[(5-chloropyridin-2-yl)sulfanyl]-2-(tetrahydro-2H-pyran-4-yl)-1,3-oxazol-4-yl}pyridin-2-yl)propan-2-ol], inhibition was half-maximal at 314 nM (IC50).

Take `CC(C)(O)c1ccc(-c2nc(C3CCOCC3)oc2Oc2ccc(Cl)cc2)cn1` [Example A7.12, 2-{5-[5-(4-chlorophenoxy)-2-(tetrahydro-2H-pyran-4-yl)-1,3-oxazol-4-yl]pyridin-2-yl}propan2-ol]: the half-maximal inhibitory concentration (IC50) turned out to be 290 nM.

The compound `CN1CCN(c2ccc(-c3nc(C4CCOCC4)oc3Sc3ccc(Cl)cc3)cn2)CC1` [Example B5.27, 1-(5-{5-[(4-chlorophenyl)sulfanyl]-2-(tetrahydro-2H-pyran-4-yl)-1,3-oxazol-4-yl}pyridin-2-yl)-4-methylpiperazine] registered an IC50 of 141 nM. The same measure for `O=C(c1ccc(-c2nc(C3CCOCC3)oc2Sc2ccc(Cl)cc2)cc1)N1CCOC1` [Example B5.20, (4-{5-[(4-chlorophenyl)sulfanyl]-2-(tetrahydro-2H-pyran-4-yl)-1,3-oxazol-4-yl}phenyl)(1,3-oxazolidin-3-yl)methanone]: 383 nM. Then `Clc1ccc(Sc2oc(C3CCOCC3)nc2-c2ccc(N3CCNCC3)cc2)cc1` [Example B5.21, 1-(4-{5-[(4-chlorophenyl)sulfanyl]-2-(tetrahydro-2H-pyran-4-yl)-1,3-oxazol-4-yl}phenyl)piperazine], with 707 nM; and `Clc1ccc(Sc2oc(C3CCOCC3)nc2-c2ccc3nncn3c2)cc1` [Example B5.23, 6-{5-[(4-chlorophenyl)sulfanyl]-2-(tetrahydro-2H-pyran-4-yl)-1,3-oxazol-4-yl}[1,2,4]triazolo[4,3-a]pyridine], with 774 nM; and `CC(C)(O)c1ccc(-c2nc([C@H]3CC[C@@H](CO)CC3)oc2Sc2ccc(Cl)cc2)cn1` [Example B5.36, 2-(5-{5-[(4-chlorophenyl)sulfanyl]-2-[cis-4-(hydroxymethyl)cyclohexyl]-1,3-oxazol-4-yl}pyridin-2-yl)propan-2-ol], with 63.8 nM. Then `O=C(c1ccc(-c2nc(C3CCOCC3)oc2Sc2ccc(Cl)cc2)cn1)N1CCOCC1` [Example B5.24, (5-{5-[(4-chlorophenyl)sulfanyl]-2-(tetrahydro-2H-pyran-4-yl)-1,3-oxazol-4-yl}pyridin-2-yl)(morpholin-4-yl)methanone], with no less than 10000 nM. `CC(O)(CO)c1ccc(-c2nc(C3CCOCC3)oc2Sc2ccc(Cl)cc2)cn1` (stereo not shown) [Example B5.37, 2-(5-{5-[(4-chlorophenyl)sulfanyl]-2-(tetrahydro-2H-pyran-4-yl)-1,3-oxazol-4-yl}pyridin-2-yl)propane-1,2-diol] gave an IC50 of 308 nM. The same measure for `COc1ccc(Sc2oc(C3CCOCC3)nc2-c2ccc(C(C)(C)O)nc2)nc1` [Example A7.4, 2-(5-{5-[(5-methoxypyridin-2-yl)sulfanyl]-2-(tetrahydro-2H-pyran-4-yl)-1,3-oxazol-4-yl}pyridin-2-yl)propan-2-ol]: 454 nM. `CC(=O)N1CCC(c2nc(C3CCOCC3)oc2Sc2ccc(Cl)cn2)CC1` [Example A7.33, 1-(4-{5-[(5-chloropyridin-2-yl)sulfanyl]-2-(tetrahydro-2H-pyran-4-yl)-1,3-oxazol-4-yl}piperidin-1-yl)ethanone] came in with a half-maximal inhibitory concentration (IC50) of 1810 nM.

The compound `O=C(OCc1ccccc1)N1CCC(c2nc(C3CCOCC3)oc2Sc2ccc(Cl)cn2)CC1` [Example A7.35, benzyl 4-{5-[(5-chloropyridin-2-yl)sulfanyl]-2-(tetrahydro-2H-pyran-4-yl)-1,3-oxazol-4-yl}piperidine-1-carboxylate] gave a half-maximal inhibitory concentration (IC50) of no less than 10000 nM. The same measure for `CN1CCN(CCOC(=O)N2CCC(c3nc(-c4ccc([S+](C)[O-])cc4)c(Sc4ccc(Cl)cn4)o3)CC2)CC1` (stereo not shown) [Example A7.28, 2-(4-methylpiperazin-1-yl)ethyl 4-{5-[(5-chloropyridin-2-yl)sulfanyl]-4-[4-(methylsulfinyl)phenyl]-1,3-oxazol-2-yl}piperidine-1-carboxylate]: no less than 10000 nM; for `C[N+]1(C)CCN(c2ccc(-c3nc(C4CCOCC4)oc3Sc3ccc(Cl)cc3)cn2)CC1` [Example B5.14, 4-(5-{5-[(4-chlorophenyl)sulfanyl]-2-(tetrahydro-2H-pyran-4-yl)-1,3-oxazol-4-yl}pyridin-2-yl)-1,1-dimethylpiperazin-1-ium]: no less than 10000 nM. The same measure for `O=C(c1ccc(-c2nc(C3CCOCC3)oc2Sc2ccc(Cl)cc2)cc1)N1CCSC1` [Example B5.31, (4-{5-{(4-chlorophenyl)sulfanyl]-2-(tetrahydro-2H-pyran-4-yl)-1,3-oxazol-4-yl}phenyl)(1,3-thiazolidin-3-yl)methanone]: 1340 nM; for `CC(C)COC(=O)N1CCC(c2nc(C3CCOCC3)oc2Sc2ccc(Cl)cn2)CC1` [Example A7.36, 2-methylpropyl 4-{5-[(5-chloropyridin-2-yl)sulfanyl]-2-(tetrahydro-2H-pyran-4-yl)-1,3-oxazol-4-yl}piperidine-1-carboxylate]: no less than 10000 nM; for `CC(C)(O)c1ccc(-c2nc([C@H]3CC[C@H](CO)CC3)oc2Sc2ccc(Cl)cc2)cn1` [Example B5.35, 2-(5-{5-[(4-chlorophenyl)sulfanyl]-2-[trans-4-(hydroxymethyl)cyclohexyl]-1,3-oxazol-4-yl}pyridin-2-yl)propan-2-ol]: 9.06 nM.

The compound `CCNC(=O)[C@H]1CC[C@H](c2nc(-c3ccc(C(C)(C)O)nc3)c(Sc3ccc(Cl)cc3)o2)CC1` [Example B5.39, trans-4-{5-[(4-chlorophenyl)sulfanyl]-4-[6-(2-hydroxypropan-2-yl)pyridin-3-yl]-1,3-oxazol-2-yl}-N-ethylcyclohexanecarboxamide] showed an IC50 of 26.2 nM. The same measure for `CC(C)(O)c1ccc(-c2nc(C3CCOCC3)oc2Cc2ccc(Cl)cc2)cn1` [Example A7.11, 2-{5-[5-(4-chlorobenzyl)-2-(tetrahydro-2H-pyran-4-yl)-1,3-oxazol-4-yl]pyridin-2-yl}propan-2-ol]: 701 nM; for `Cc1nnc(-c2cccc(-c3nc(C4CCOCC4)oc3Sc3ccc(Cl)cc3)c2)o1` [Example B5.29, 2-(3-{5-[(4-chlorophenyl)sulfanyl]-2-(tetrahydro-2H-pyran-4-yl)-1,3-oxazol-4-yl}phenyl)-5-methyl-1,3,4-oxadiazole]: no less than 10000 nM. With `CC(C)OC(=O)N1CCC(c2nc(C3CCOCC3)oc2Sc2ccc(Cl)cn2)CC1` [Example A7.37, propan-2-yl 4-{5-[(5-chloropyridin-2-yl)sulfanyl]-2-(tetrahydro-2H-pyran-4-yl)-1,3-oxazol-4-yl}piperidine-1-carboxylate], 1920 nM corresponded to half-maximal inhibition (IC50).

`COC(=O)[C@H]1CC[C@@H](c2nc(-c3ccc(C(C)(C)O)nc3)c(Sc3ccc(Cl)cc3)o2)CC1` [Example B5.34, methyl cis-4-{5-[(4-chlorophenyl)sulfanyl]-4-[6-(2-hydroxypropan-2-yl)pyridin-3-yl]-1,3-oxazol-2-yl}cyclohexanecarboxylate] gave a concentration for half-maximal inhibition (IC50) of 14.2 nM. `CC(C)(O)c1ccc(-c2nc(C3CCOCC3)oc2Sc2ccccc2Cl)cn1` [Example A7.10, 2-(5-{5-[(2-chlorophenyl)sulfanyl]-2-(tetrahydro-2H-pyran-4-yl)-1,3-oxazol-4-yl}pyridin-2-yl)propan-2-ol] showed a half-inhibitory concentration (IC50) of no less than 10000 nM.

For `COCCOC(=O)N1CCC(c2nc(C3CCOCC3)oc2Sc2ccc(Cl)cn2)CC1` [Example A7.38], the 50% inhibitory concentration (IC50) was no less than 10000 nM. Then `O=S1(=O)CCN(c2ccc(-c3nc(C4CCOCC4)oc3Sc3ccc(Cl)cc3)cc2)CC1` [Example B5.22, 4-(4-{5-[(4-chlorophenyl)sulfanyl]-2-(tetrahydro-2H-pyran-4-yl)-1,3-oxazol-4-yl}phenyl)thiomorpholine 1,1-dioxide], with 40.3 nM; and `Clc1ccc(Sc2oc(C3CCOCC3)nc2-c2cnc3n2CCC3)cc1` [Example B5.25, 3-{5-[(4-chlorophenyl)sulfanyl]-2-(tetrahydro-2H-pyran-4-yl)-1,3-oxazol-4-yl}-6,7-dihydro-5H-pyrrolo[1,2-a]imidazole], with 205 nM. With `CC(C)(O)c1ccc(-c2nc([C@H]3CC[C@H](C(C)(C)O)CC3)oc2Sc2ccc(Cl)cc2)cn1` [Example B5.38, 2-(5-{5-[(4-chlorophenyl)sulfanyl]-2-[trans-4-(2-hydroxypropan-2-yl)cyclohexyl]-1,3-oxazol-4-yl}pyridin-2-yl)propan-2-ol], the midpoint of inhibition, the IC50, lay at 185 nM. The same measure for `CN(C(=O)c1ccc(-c2nc(C3CCOCC3)oc2Sc2ccc(Cl)cc2)cc1)C1CCOC1` (stereo not shown) [Example B5.26, 4-{5-[(4-chlorophenyl)sulfanyl]-2-(tetrahydro-2H-pyran-4-yl)-1,3-oxazol-4-yl}-N-methyl-N-(tetrahydrofuran-3-yl)benzamide]: 506 nM.

The values above are taken from patent publication US9193697B2, “Oxazole derivatives useful as modulators of FAAH” (MERCK SHARP & DOHME CORP., priority 2010, dated 2015).
